Test results published in patent US8987285B2, “Pharmaceutical compositions, dosage forms and new forms of the compound of formula (I), and methods of use thereof” (Portola Pharmaceuticals, Inc., priority 2010, dated 2015).
Like-named read-outs stand apart in the source and are kept apart here.

How the values were obtained:
Format in all cases: physicochemical
[1] = Aqueous solubility of the free acid versus pH; conditions: aqueous buffer
Source text: […]. […] In certain instances, the active agent is initially present at least partly in an ionized form. In certain other instances, the active agent is initially present in an un-ionized form.

[2] = pKa, log P and log D of the compound of formula (II)
Source text: The pKa of the compound of formula (II) is about 3.3, with a log P of about 2.5 and log D (pH7.4) of about −1.6.

[3] = Saturation solubility, shake-flask with UV quantification; conditions: for solubility at 72 h: thermodynamic from solid
Protocol: The FaSSIF and FeSSIF solutions were prepared using Phares SIF powder according to the formulation instructions and the SGF solution was prepared using the guidelines provided. […] The pH and temperature of the supernatant were measured on a SiriusT3 instrument.

[4] = Wettability: contact angle measurement with water on pressed powder; conditions: water, in ° (unit assumed)
Protocol: Contact angel instrument: EasyDrop DSA15E (Krüss, Hamburg, Germany)
Syringe: NE44, diameter of needle 0.5 mm (Krüss, Hamburg, Germany)
The powder was pressed (approx 50 mg powder, 3 tons, 2 min) in tablets and analyzed by contact angle measurement. The angel between the solid and the liquid is measured after 0 and up to 60 seconds using water.
All determinations used the above method and the limit for the standards measurements are well within the given limits.

[5] = Super-saturation measurement (CheqSol): intrinsic and kinetic solubility; conditions: for ratio super saturation: kinetic solubility divided by intrinsic solubility
Source text: Anal. Chem. 2005, 77(4), 983-990; 2—Box, K J. Völgyi, G. Baka, E. Stuart, M. Takács-Novák, K. Corner, J E A. Equilibrium vs. kinetic measurements of aqueous solubility, and the ability of compounds to supersaturate in solution—a validation study. J. Pharm. Sci. 2006, 95, 1298-1307; 3—Sköld, C. Winiwarter, S. Johan Wernevik, J. Bergström, F. Engström, L. Allen, R. Box, K. Corner, J. Mole, J. Hallberg, A. Lennernäs, H. Lundstedt, T. Ungell, A-L. Karlén, A. Presentation of a Structurally Diverse and Commercially Available Drug Data Set for Correlation and Benchmarking Studies. J. Med. Chem. 2006, 49(23), 6660-6671;
. Med. Chem.; 2007, 50 (5), 979-983; 5—Llinás, A. Box, K J. Burley, J C. Glen, R C. Goodman, J M. J. A new method for the reproducible generation of polymorphs: two forms of Sulindac with very different solubilities. […] 6—Box K et al, Using Measured pKa, Log P and Solubility to Investigate Supersaturation and Predict BCS Class, Current Drug Metabolism, 2008, 9, 869-878]
1—kinetic solubility is the concentration of a compound in solution at the time when an induced precipitate first appears
2—equilibrium solubility (also called thermodynamic solubility) is the concentration of compound in a saturated solution when excess solid is present, and solution and solid are at equilibrium
3—intrinsic solubility [Hörter, D.; Dressman, J. B. Adv. Drug Deliv. Rev., 1997, 25, 3-14] is the equilibrium solubility of the free acid or base form of an ionisable compound at a pH where it is fully un-ionized
The super-saturation ratio is calculated as the ratio of kinetic solubility divided by the Intrinsic Solubility.

Which solubility ([1]; pH 1.0-7.4, read-out: aqueous solubility of the free acid form) does the source give for `CNc1cc2[nH]c(=O)n(-c3ccc(NC(=O)NS(=O)(=O)c4ccc(Cl)s4)cc3)c(=O)c2cc1F` [compound of formula (II), elinogrel] here?
Its solubility is less than 100 µg/mL.

And the solubility ([1]; pH 8 or above, read-out: aqueous solubility)?
Its solubility is no less than 1000 µg/mL.

And the LogP [2]?
The LogP was roughly 2.5.

And the pKa ([2]; first pKa)?
The pKa was “about 3.3”.

What about the logD ([2]; pH 7.4, pH7.4) of the same compound?
The logD was roughly -1.6.

What about the pKa ([2]; read-out: second pKa) of the same compound?
The pKa was 10.3.

And the “final pH measured of the supernatant” value ([3]; FaSSIF pH 6.5-1w)?
Its value is 6.42.

And the “final pH measured of the supernatant” value ([3]; FeSSIF pH 5.0-1w)?
Its value is 4.97.

And the “final pH measured of the supernatant” value ([3]; Na Phosphate pH 6.8)?
Its value is 6.80.

What about the “final pH measured of the supernatant” value ([3]; Na-Acetate pH 4.5) of the same compound?
The value was 4.53.

And the “final pH measured of the supernatant” value ([3]; SGF pH 2.1)?
Its value is 2.21.

What about the solubility at 72 h ([3]; aqueous buffer, Na Phosphate pH 6.8, mean N = 2) of the same compound?
Its solubility at 72 h is 11.3 µg/mL.

And the solubility at 72 h ([3]; aqueous buffer, Na-Acetate pH 4.5, mean N = 2)?
Its solubility at 72 h is 0.89 µg/mL.

And the solubility at 72 h ([3]; simulated gastric fluid, SGF pH 2.1, mean N = 2)?
Its solubility at 72 h is 0.48 µg/mL.

What about the solubility at 72 h ([3]; FaSSIF pH 6.5-1w, mean N = 2) of the same compound?
The solubility at 72 h was 25.2 µg/mL.

And the solubility at 72 h ([3]; FeSSIF pH 5.0-1w, mean N = 2)?
Its solubility at 72 h is 6 µg/mL.

And the Contact angle ([4]; 0 sec)?
Its Contact angle is 65.9.

What about the Contact angle ([4]; 30 sec) of the same compound?
Its Contact angle is 60.8.

What about the Contact angle ([4]; 60 sec) of the same compound?
The Contact angle was 60.1.

And the solubility kinetic ([5]; kinetic from dmso stock, CheqSol)?
Its solubility kinetic is 4.17 µg/mL.

What about the ratio super saturation ([5]; listed as Free acid) of the same compound?
Its ratio super saturation is 179.

What about the ratio super saturation ([5]; listed as free acid of formula (II)) of the same compound?
The ratio super saturation was 178.

What about the solubility ([5]; thermodynamic from solid, CheqSol) of the same compound?
The solubility was 0.0234 µg/mL.
